# What was measured:
# Arabidopsis thaliana = assay: Phenotypic profiling of Arabidopsis sprayed with unknown and commercial herbicides (MOA1); type: in vivo
# [1] = tested on: Saccharomyces cerevisiae wild type strain BY4743; assay: Combined gene expression and metabolite data mapped to KEGG reactions and pathways (AF1); type: cell-based; conditions: yeast
# Excerpt: In AF1, two different technologies were utilized: gene expression analysis (for examination of mRNA expression) and metabolite analysis. […] As noted previously, existing metabolic databases may be helpful in practicing the methods and systems of the present invention, but many databases include limitations that make their use in data analysis and pathway mapping less than straightforward. […] This caveat to KEGG makes it difficult to pinpoint the correct pathway when attempting to link a gene to a specific pathway. […] The pathway score indicates how meaningful the mapping is, or how likely it is to be correctly indicative of the pathway involved in the perturbation under examination. The method provides a pathway score based on perturbation levels of genes. and/or compounds and the information content of each gene and/or compound in the pathway, i.e., a pathway score indicates the extent to which other pathways are mapped to a gene/compound. For example, imagine that two genes are perturbed in a particular experiment. One gene maps to only one pathway, giving a high degree of probability that the perturbed pathway is the one identified in the mapping. The second gene maps to three pathways. In the later example, there is only one-third the probability that the pathway identified in the mapping is the one perturbed. The present invention provides a method for calculating the pathway scores, so that more weight is given to a score of a gene or compound that maps to only one pathway than to a score of a gene or compound that maps to multiple pathways. […] Where n=the total number of genes in the pathway; ipath—count=the number of pathways containing a gene; and j=the number of genes in the pathway that are perturbed. Another factor to be considered when weighting a pathway score is the degree of perturbation. Degree of perturbation can be calculated, for example, based on a number of standard deviations from a norm, and included in an equation such as the one shown above, so that not only the number of pathways is taken into account, but also accounts for the amount of gene transcript or compound present as compared to a control. Compounds were also linked to pathways using the KEGG database. KEGG links 676 compounds measured in AF1 to a total of 92 pathways. Of the 676 compounds under consideration, 77 were detected in the AF1 samples. […] The multiple mapping feature of KEGG makes it difficult to pinpoint the correct pathway when trying to link a compound to a specific pathway. […] A pathway score calculation is applied to the compounds to account for both information content (number of pathways a compound maps to) and perturbation level. […]
# [2] = tested on: Saccharomyces cerevisiae wild type strain BY4743; assay: Gene expression analysis of yeast cells treated with antifungal drugs (AF1); type: cell-based; conditions: p < 0.05; KEGG pathway mapping of gene expression data
# Protocol: Saccharomyces cerevisiae wild type strain BY4743 was purchased from American Type Culture Center (ATCC, Manassas, Va.). The yeast strain was grown in YPD or SD media. […] The cultures started from fresh single colonies were grown in 1.0 ml YPD overnight at 30° C. […] The OD600 was adjusted to 1.0 with YPD media, then 2.0 ml of each was inoculated into three 250 ml flasks, each containing 50 ml of SD media. […] The cells were kept growing for another two hours, then collected by centrifugation at 4000 rpm for 5 minutes at 4° C. Pellets were washed once with ice-cold water, then were lyophilized overnight at 4° C. […] RNA quality was determined using the Bioanalyzer 2100 and the RNA 6000 assay (Agilent Technologies, Palo Alto, Calif.) according to manufacturer's instructions. RNA concentrations were determined spectrophotometrically by measuring the absorption at 260 nm in an Ultrospec 2000 (Pharmacia Biotech, Piscataway, N.J.). […] Labeled cRNAs were evaluated using the RNA 6000 assay on the Agilent Bioanalyzer 2100. Labeled cRNA concentrations were determined spectrophotometrically by measuring the absorption at 260 nm in an Ultrospec 2000 (Pharmacia Biotech, Piscataway, N.J.). […] Each feature was determined from an array's associated pattern file and a detection algorithm. […] Data was evaluated after combining results from fluor reversal replicate hybridizations. […]
# [3] = tested on: Saccharomyces cerevisiae wild type strain BY4743; assay: Metabolite analysis (GC-MS, LC-MS) of yeast cells treated with antifungal drugs (AF1); type: cell-based; conditions: for Fold Change of NacetylDglucosamine: metabolite NacetylDglucosamine; for Fold Change of phosphoenolpyruvate: metabolite phosphoenolpyruvate; for Fold Change of thymine: metabolite thymine; for Fold Change of urocanic acid: metabolite urocanic acid; for Fold Change of zeatin: metabolite zeatin
smiles,measurement,setting,value
Nc1nc[nH]n1 [Amitrole],herbicidal phenotype in words,Arabidopsis thaliana,chlorosis and not true bleaching
C[C@@H]1[C@H](O)[C@@H](C)/C=C/C=C/C=C/C=C/C=C/C=C/C=C/[C@H](O[C@@H]2O[C@H](C)[C@@H](O)[C@H](N)[C@@H]2O)C[C@@H]2O[C@](O)(C[C@@H](O)C[C@@H](O)[C@H](O)CC[C@@H](O)C[C@@H](O)CC(=O)O[C@H]1C)C[C@H](O)[C@H]2C(=O)O [Amphoteracin B],# Reactions (Number Of Pathways Having at Least One Enzyme and One Compound Perturbed),[1],37
same,# Pathways affected by at least one gene,[2],97
CC[C@@H]([C@H](C)O)n1ncn(-c2ccc(N3CCN(c4ccc(OC[C@@H]5CO[C@@](Cn6cncn6)(c6ccc(F)cc6F)C5)cc4)CC3)cc2)c1=O [Posaconazole],Fold Change: aspartic acid,[3]; GC,−0.071
same,Fold Change: campesterol,[3]; GC,0
same,Fold Change: desmosterol,[3]; GC,0
same,Fold Change: iso citric acid,[3]; GC,0.4
same,Fold Change of NacetylDglucosamine,"[3]; platform nLC, p-Value 1",0
same,Fold Change of NacetylDglucosamine,"[3]; platform pLC, p-Value 1",0
same,Fold Change of NacetylLglutamate,"[3]; metabolite NacetylLglutamate, platform pLC, p-Value 1",0
same,Fold Change of NacetylLornithine,"[3]; metabolite NacetylLornithine, platform nLC, p-Value 1",0
same,Fold Change of niacinamide,"[3]; metabolite niacinamide, platform pLC, p-Value 1",0
same,Fold Change of nopaline,"[3]; metabolite nopaline, platform pLC, p-Value 1",0
same,Fold Change of ornithine3,"[3]; metabolite ornithine3, platform GC, p-Value 0.965157424",0.041
same,Fold Change of orotic acid,"[3]; metabolite orotic acid, platform nLC, p-Value 1",0
same,Fold Change of phenylpyruvic acid,"[3]; metabolite phenylpyruvic acid, platform nLC, p-Value 1",0
same,Fold Change of phosphoenolpyruvate,"[3]; platform nLC, p-Value 1",0
same,Fold Change of phosphoenolpyruvate,"[3]; platform pLC, p-Value 1",0
same,Fold Change of pinitol,"[3]; metabolite pinitol, platform nLC, p-Value 1",0
same,Fold Change of porphobilinogen,"[3]; metabolite porphobilinogen, platform nLC, p-Value 1",0
same,Fold Change of progesterone,"[3]; metabolite progesterone, platform pLC, p-Value 1",0
same,Fold Change of retinoic acid,"[3]; metabolite retinoic acid, platform nLC, p-Value 1",0
same,Fold Change of riboflavin,"[3]; metabolite riboflavin, platform pLC, p-Value 1",0
same,Fold Change of salicylic/HObenzoic,"[3]; metabolite salicylic/HObenzoic, platform nLC, p-Value 1",0
same,Fold Change of shikimic acid,"[3]; metabolite shikimic acid, platform nLC, p-Value 1",0
same,Fold Change of sinapinic acid,"[3]; metabolite sinapinic acid, platform nLC, p-Value 1",0
same,Fold Change of sugar-phosphate,"[3]; metabolite sugar-phosphate, platform pLC, p-Value 1",0
same,Fold Change of thiamine,"[3]; metabolite thiamine, platform pLC, p-Value 1",0
same,Fold Change of thymine,"[3]; platform nLC, p-Value 1",0
same,Fold Change of thymine,"[3]; platform pLC, p-Value 1",0
same,Fold Change of tryptophan,"[3]; metabolite tryptophan, platform pLC, p-Value 1",0
same,Fold Change of uric acid,"[3]; metabolite uric acid, platform pLC, p-Value 1",0
same,Fold Change of urocanic acid,"[3]; platform nLC, p-Value 1",0
same,Fold Change of urocanic acid,"[3]; platform pLC, p-Value 1",0
same,Fold Change of xanthosine(diH2O),"[3]; metabolite xanthosine(diH2O), platform pLC, p-Value 1",0
same,Fold Change of xanthosineDiH2O,"[3]; metabolite xanthosineDiH2O, platform nLC, p-Value 1",0
same,Fold Change of zeatin,"[3]; platform nLC, p-Value 1",0
same,Fold Change of zeatin,"[3]; platform pLC, p-Value 1",0
same,Fold Change: 4-methylcatechol,[3]; nLC,0
same,Fold Change: 5hydroxyLtryptophan,[3]; nLC,0
same,Fold Change: 6-benzylaminopurine,[3]; nLC,0
same,Fold Change: abscisic acid,[3]; nLC,0
same,Fold Change: adenine,[3]; nLC,0
same,Fold Change: anthranilic acid,[3]; nLC,0
same,Fold Change: benzoic acid,[3]; nLC,0
same,Fold Change: catechol,[3]; nLC,0
same,Fold Change: cinnamic acid,[3]; nLC,0
same,Fold Change: citricanoic/itaconi,[3]; nLC,0
same,Fold Change: coumaric acid,[3]; nLC,0
same,Fold Change: cytosine,[3]; nLC,0
same,Fold Change: diaminopimelic acid,[3]; nLC,0
same,Fold Change: dihydrofolic acid,[3]; nLC,0
same,Fold Change: estrone,[3]; nLC,0
same,Fold Change: farnesol,[3]; nLC,0
same,Fold Change: folic acid,[3]; nLC,0
same,Fold Change: gibberellic,[3]; nLC,0
same,Fold Change: guanine,[3]; nLC,0
same,Fold Change: histidine,[3]; nLC,0
same,Fold Change: homogentisic/uric,[3]; nLC,0
same,Fold Change: hydrocortisone,[3]; nLC,0
same,Fold Change: indole3pyruvic acid,[3]; nLC,0
same,Fold Change: jasmonic acid,[3]; nLC,0
same,Fold Change: kinetin,[3]; nLC,0
same,Fold Change: luteolin,[3]; nLC,0
same,Fold Change: malonic acid,[3]; nLC,0
same,Fold Change: methionine,[3]; nLC,0
same,Fold Change: 4-aminobenzoic acid,[3]; pLC,0
same,Fold Change: 4-methylcatechol,[3]; pLC,0
same,Fold Change: 5hydroxyLtryptophan,[3]; pLC,0
same,Fold Change: 6benzylaminopurine,[3]; pLC,0
same,Fold Change: abscisic acid,[3]; pLC,0
same,Fold Change: adenosine,[3]; pLC,0
same,Fold Change: allantoic acid,[3]; pLC,0
same,Fold Change: anthranilic acid,[3]; pLC,0
same,Fold Change: argininosuccinate,[3]; pLC,0
same,Fold Change: biotin,[3]; pLC,0
same,Fold Change: caffeine,[3]; pLC,0
same,Fold Change: citric acid TME,[3]; pLC,0
same,Fold Change: cytidine,[3]; pLC,0
same,Fold Change: diaminopimelic acid,[3]; pLC,0
same,Fold Change: dihydrofolic acid,[3]; pLC,0
same,Fold Change: dipicolinic acid,[3]; pLC,0
same,Fold Change: folic acid,[3]; pLC,0
same,Fold Change: glucosamine,[3]; pLC,0
same,Fold Change: glucosamine6PO4,[3]; pLC,0
same,Fold Change: histidine,[3]; pLC,0
same,Fold Change: hydrocortisone,[3]; pLC,0
same,Fold Change: itaconic acid dimes,[3]; pLC,0
same,Fold Change: kinetin,[3]; pLC,0
same,Fold Change: luteolin,[3]; pLC,0
same,# Reactions (Number Of Pathways Having at Least One Enzyme and One Compound Perturbed),[1],3
CC(C)OC(=O)Nc1cccc(Cl)c1 [Chloropropham],herbicidal phenotype in words,Arabidopsis thaliana,neither showed a strong herbicidal phenotype
CCSC(=O)N(CC(C)C)CC(C)C [Butylate],herbicidal phenotype in words,Arabidopsis thaliana,neither showed a strong herbicidal phenotype

# Reference: patent US20040024293A1, “Methods and systems for analyzing complex biological systems” (priority 2001, published 2004)
